As a reminder, the Kd is the constant that tells how readily two partners part at equilibrium.

Three compounds from ChEMBL document CHEMBL1126338, “The synthesis of a conformationally rigid calcium channel blocker” (Bioorg Med Chem Lett, 1992) can be followed below.

The species named for assay [1] is Oryctolagus cuniculus. Kind of assay: Inhibition of K+ induced contraction of rabbit aorta. The format is functional. As to conditions: read-out: I50.
Assay [2] can be described thus: Inhibition of [3H]D-cis-diltiazem binding to calcium channel of isolated guinea pig skeletal muscle microsomal preparation. The format is microsomes, Cavia porcellus, Muscle tissue.

In the case of `COc1ccc([C@@H]2CC3c4ccccc4C2C[C@@]32CCNC2)cc1` (stereo partly specified), in assay [1], the IC50 is 950 nM. For the same compound, the equilibrium dissociation constant (Kd) in assay [2] was found to be 330 nM.

For `COc1ccc([C@@H]2CC3c4ccccc4C2C[C@]32CCNC2)cc1` (stereo partly specified), the IC50 in assay [1] is 2000 nM. For the same compound, in assay [2], the Kd stood at 1260 nM.

For `COc1ccc([C@@H]2Sc3ccccc3N(CCN(C)C)C(=O)[C@@H]2OC(C)=O)cc1` [DILTIAZEM], the IC50 in assay [1] is 1800 nM. In assay [2], the Kd stood at 380 nM.
